The source of these data is US5830911A, “Pyranoindole and tetrahydrocarbazole inhibitors of COX-2” (American Home Products Corporation, priority 1997, dated 1998).

The target of series [1] is T1, rhCOX-2 (Homo sapiens, UniProt P35354).
T1 construct: made in house; microsomal preparation
T1 sequence (P35354 18-604): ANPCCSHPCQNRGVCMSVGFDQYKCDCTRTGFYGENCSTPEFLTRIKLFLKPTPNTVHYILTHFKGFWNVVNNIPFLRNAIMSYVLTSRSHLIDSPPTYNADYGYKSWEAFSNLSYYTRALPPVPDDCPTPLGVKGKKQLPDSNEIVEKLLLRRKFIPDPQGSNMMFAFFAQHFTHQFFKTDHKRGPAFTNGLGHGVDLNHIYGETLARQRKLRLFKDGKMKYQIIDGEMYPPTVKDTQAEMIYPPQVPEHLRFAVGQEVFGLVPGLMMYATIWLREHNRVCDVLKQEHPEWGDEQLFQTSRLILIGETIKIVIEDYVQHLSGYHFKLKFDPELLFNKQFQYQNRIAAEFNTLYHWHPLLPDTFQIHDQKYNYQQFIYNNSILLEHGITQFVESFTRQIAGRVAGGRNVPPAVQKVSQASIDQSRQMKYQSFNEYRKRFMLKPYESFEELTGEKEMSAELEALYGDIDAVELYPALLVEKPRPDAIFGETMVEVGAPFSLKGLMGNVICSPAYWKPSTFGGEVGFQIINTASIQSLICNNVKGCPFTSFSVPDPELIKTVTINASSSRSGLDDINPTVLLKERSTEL
Description: Inhibition of recombinant human COX-2 (PGH2 converted to PGF2α, EIA). Format: biochemical. The note with it: for IC50: human recombinant COX-2, 30 min preincubation, 37° C. Here is the method: (§1) Representative compounds of this invention were evaluated for inhibition of COX-2 and COX-1 enzymes as follows. Human COX-1 and COX-2 cDNAs were cloned from human monocytes, untreated and LPS-treated respectively, by RT-PCR using oligonucleotide primers based on published hCOX-1 and hCOX-2 sequences (Jones et al., J. Biol. Chem., 268, 9049 (1993)). The cDNAs were then transfected into either Sf9 or CHO cells and subsequently converted into a microsomal preparation as described by Glaser et al (Eur. J. Pharmacol. 281, 107-111 (1995)). The microsomal human recombinant enzymes were diluted with buffer (100 mM Tris, pH 7.8 at 37° C.) containing 0.5 mM phenol ([…] total volume). The enzyme preparations were preincubated with vehicle (DMSO) or compounds in DMSO (1 % DMSO in final assay) for 30 min at 37° C. Excess hematin was added 1 min prior to initiation of reaction (1.25 mM final hematin) with 30 mM arachidonic acid (sodium salt). Final assay volume was 1.0 ml (100 mM Tris (pH 7.8), 0.5 mM phenol, 1.25 mM hematin and 30 mM arachidonic acid at 37° C.).
The reaction was incubated for 35 sec (maximum level of PGH2 accumulation as determined from time course studies), and terminated by addition of […] of SnCl2 (1 mg/ml) in 0.1N HCl. PGH2 is quantitatively converted to PGF2a by this reaction (50% efficiency of total conversion). The pH of each tube is adjusted to pH 3.0-3.5 with 0.1N--NaOH and extracted twice with 1.5 ml of ethyl acetate (75-90% efficiency per extraction). Combined ethyl acetate extracts were dried under N2 (g) and redissolved in EIA buffer (2.0 ml), and PGF2α ( was quantified by EIA.

For series [2], the target named is T2, purified ovine COX-1 (Ovis aries, UniProt P05979).
T2 construct: purchased Cayman Chemicals (Ann Arbor, Mich.)
T2 sequence (P05979 25-600): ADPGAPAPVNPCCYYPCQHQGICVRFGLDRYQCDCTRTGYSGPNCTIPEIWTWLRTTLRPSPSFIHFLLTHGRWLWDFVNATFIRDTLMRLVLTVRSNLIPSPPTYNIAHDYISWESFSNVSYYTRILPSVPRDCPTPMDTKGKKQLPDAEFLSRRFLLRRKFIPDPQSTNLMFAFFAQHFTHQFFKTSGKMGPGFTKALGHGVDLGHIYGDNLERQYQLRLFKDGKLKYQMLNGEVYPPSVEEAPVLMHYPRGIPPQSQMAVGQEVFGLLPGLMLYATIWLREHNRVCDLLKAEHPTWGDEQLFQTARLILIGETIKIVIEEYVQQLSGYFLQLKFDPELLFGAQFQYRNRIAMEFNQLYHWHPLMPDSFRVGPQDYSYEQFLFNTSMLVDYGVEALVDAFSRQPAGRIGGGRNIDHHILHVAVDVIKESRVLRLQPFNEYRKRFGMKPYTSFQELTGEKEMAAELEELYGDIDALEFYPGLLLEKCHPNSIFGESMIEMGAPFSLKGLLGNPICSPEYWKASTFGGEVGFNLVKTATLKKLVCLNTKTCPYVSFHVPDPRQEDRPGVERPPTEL
The series is described as follows: Inhibition of purified ovine COX-1 (PGH2 converted to PGF2α, EIA). Format: biochemical. As to conditions: for inhibition at 270 µM / inhibition at 10 µM / inhibition at 90 µM / inhibition at 30 µM: read-out: % inh of pur. bovine COX-1. Here is the method: [The source words this procedure for another species and reports this species under the same test.] as §1, with “C.). The reaction was incubated for 35 sec (maximum level of PGH2 accumulation as determined from time course studies), and terminated by addition of […] of SnCl2 (1 mg/ml) in 0.1N HCl. PGH2 is quantitatively converted to PGF2a by this reaction (50% efficiency of total conversion). The pH of each tube is adjusted to pH 3.0-3.5 with 0.1N--NaOH and extracted twice with 1.5 ml of ethyl acetate (75-90% efficiency per extraction).” for “C.).”

For series [3] the following is noted: Futaki et al., Gen. Pharmac. 24, 105-110, 1993; cited from earlier work.
The conditions of series [4]: Futaki et al., Gen. Pharmac. 24, 105-110, 1993; cited from earlier work. This is another data set of the same source.
The test system of series [5] is COX-2. The note with it: literature; cited from earlier work.
For series [6] the following is noted: Rogers et al., Neurology 43, 1609-1611 (1993); cited from earlier work.

Usually IC50 stands for the point on the concentration scale where inhibition reaches its midpoint. Consider `CCCC1(CC(=O)O)OCCc2c1[nH]c1cccc(C#N)c21` (centres unmarked) [Example 4, 5-Cyano-1-propyl-1,3,4,9-tetrahydropyrano[3,4-b]indole-1-acetic acid], for which the IC50 in series [1] is 1.7 µM; in series [2] (purified ovine COX-1, 30 min preincubation, 37° C.), greater than 1000 µM.
Regarding `C=CCC1(CC(=O)O)CCCc2c1[nH]c1c(C#N)ccc(C#N)c21` (centres unmarked) [Example 11, 1-Allyl-5,8-dicyano-2,3,4,9-tetrahydro-1H-carbazole-1-acetic acid], the inhibition at 1 µM in series [1] (read-out: % inh of rhCOX-2) was found to be 91%. In addition, in series [2], the inhibition at 270 µM was found to be 86%.
Turning to `CS(=O)(=O)Nc1ccc([N+](=O)[O-])cc1OC1CCCCC1` [N-(2-cyclohexyloxy-4-nitrophenyl)methanesulfonamide], in series [3], the antiinflammatory effect entry was “effective antiinflammatory”. In addition, in series [4], the gastric side effects result is listed as “lacks gastric side effects”. The “selectivity for inhibition of COX-2” value in series [5] is given as “selective COX-2 inhibitor”.
Turning to `CCCC1(CC(=O)O)OCCc2c1[nH]c1c(F)ccc(C#N)c21` (centres unmarked) [Example 1, 5-Cyano-8-fluoro-1-propyl-1,3,4,9-tetrahydropyrano[3,4-b]indole-1-acetic acid], in series [1], the IC50 worked out at 1 µM.
`COc1ccc2c(c1)c(CC(=O)O)c(C)n2C(=O)c1ccc(Cl)cc1` [Indomethacin]: the “selectivity for inhibition of COX-2” value in series [5] is “relatively non-selective inhibitor of COX-1 and COX-2”. Moreover, the “treatment of Alzheimer's disease” value in series [6] is on record as “useful in the treatment of Alzheimer's disease”.
With `CCCC1(CC(=O)O)CCCc2c1[nH]c1c(F)ccc(C#N)c21` (centres unmarked) [Example 6, 5-Cyano-8-fluoro-1-propyl-2,3,4,9-tetrahydro-1H-carbazole-1-acetic acid], the IC50 in series [1] was 0.32 µM. Also, in series [2], the inhibition at 10 µM turned out to be 73%.
As for `CCc1cccc2c3c([nH]c12)C(CC)(CC(=O)O)OCC3` (centres unmarked) [etodolac], the “selectivity for inhibition of COX-2” value in series [5] is “tenfold”.
As for `CCCC1(CC(=O)O)CCCc2c1[nH]c1c(C)ccc(C#N)c21` (centres unmarked) [Example 8, 5-Cyano-1-propyl-8-methyl-2,3,4,9-tetrahydro-1H-carbazole-1-acetic acid], the inhibition at 1 µM in series [1] (read-out: % inh of rhCOX-2) was found to be 44%. Besides, the inhibition at 270 µM in series [2] amounted to 99%.
For `CCCC1(CC(=O)O)OCCc2c1[nH]c1c(C)ccc(C#N)c21` (centres unmarked) [Example 2, 5-Cyano-8-methyl-1-propyl-1,3,4,9-tetrahydropyrano[3,4-b]indole-1-acetic acid], in series [1] (at 3 μM, read-out: % inh of rhCOX-2), the inhibition at 3 µM was 38%. Further, the inhibition at 90 µM in series [2] was 86%.
As for `CCC1(CC(=O)O)OCCc2c1[nH]c1cccc(C#N)c21` (centres unmarked) [Example 3, 5-Cyano-1-ethyl-1,3,4,9-tetrahydropyrano[3,4-b]indole-1-acetic acid], in series [1], the IC50 amounted to 0.57 µM. In series [2], the inhibition at 30 µM amounted to 47% and the inhibition at 270 µM came out at 31%.
Turning to `C=CCC1(CC(=O)O)CCCc2c1[nH]c1c(F)ccc(C#N)c21` (centres unmarked) [Example 5, 1-Allyl-5-cyano-8-fluoro-2,3,4,9-tetrahydro-1H-carbazole-1-acetic acid], in series [1], the IC50 stood at 0.1 µM. For the same compound, in series [2], the inhibition at 10 µM turned out to be 93%.
As to `CCCC1(CC(=O)O)CCCc2c1[nH]c1c(C(N)=O)ccc(C#N)c21` (centres unmarked) [Example 9, 8-Carboxamido-5-cyano-1-propyl-2,3,4,9-tetrahydro-1H-carbazole-1-acetic acid], the inhibition at 0.1 µM in series [1] (read-out: % inh of rhCOX-2) was determined as 21%. Moreover, in series [2], the inhibition at 90 µM was -37%.
As for `CCCC1(CC(=O)O)CCCc2c1[nH]c1cc(C#N)ccc21` (centres unmarked) [Example 13, 7-Cyano-1-propyl-2,3,4,9-tetrahydro-1H-carbazole-1-acetic acid], the inhibition at 0.1 µM in series [1] (read-out: % inh of rhCOX-2) worked out at 31%. Besides, the inhibition at 90 µM in series [2] turned out to be 100%.
Regarding `CCCC1(CC(=O)O)CCCc2c1[nH]c1cccc(C#N)c21` (centres unmarked) [Example 10, 5-Cyano-1-propyl-2,3,4,9-tetrahydro-1H-carbazole-1-acetic acid], the inhibition at 0.1 µM in series [1] (read-out: % inh of rhCOX-2) was determined as 18%. In series [2], the inhibition at 90 µM is 74%.
For `C=CCC1(CC(=O)O)CCCc2c1[nH]c1c(C)ccc(C#N)c21` (centres unmarked) [Example 7, 1-Allyl-5-cyano-8-methyl-2,3,4,9-tetrahydro-1H-carbazole-1-acetic acid], the inhibition at 0.3 µM in series [1] (at 0.3 μM, read-out: % inh of rhCOX-2) stood at 75%. Moreover, in series [2], the inhibition at 30 µM turned out to be 99%.
In the case of `CCCC1(CC(=O)O)CCCc2c1[nH]c1c(C#N)ccc(C#N)c21` (centres unmarked) [Example 12, 5,8-Dicyano-1-propyl-2,3,4,9-tetrahydro-1H-carbazole-1-acetic acid], in series [1] (read-out: % inh of rhCOX-2), the inhibition at 1 µM turned out to be 78%. For the same compound, the inhibition at 270 µM in series [2] came to 98%.
